Here are results for 20 compounds from patent US9957264B2 (Merck Sharp & Dohme Corp., priority 2013, dated 2018).

The target of assay [1] is JAK1 (recombinant purified GST-tagged catalytic domain) (Homo sapiens (Human), UniProt P23458). Put plainly: Jak Biochemical HTRF Assay (JAK1). Particulars: [ATP] 31.8 μM. In a few lines: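 Phosphorylation of a common biotinylated peptide by each catalytic domain is measured by HTRF. The ATP-started reaction runs 120 min at room temperature before EDTA quench and detection.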
JAK1 (recombinant purified GST-tagged catalytic domain), sequence (P23458 875-1153): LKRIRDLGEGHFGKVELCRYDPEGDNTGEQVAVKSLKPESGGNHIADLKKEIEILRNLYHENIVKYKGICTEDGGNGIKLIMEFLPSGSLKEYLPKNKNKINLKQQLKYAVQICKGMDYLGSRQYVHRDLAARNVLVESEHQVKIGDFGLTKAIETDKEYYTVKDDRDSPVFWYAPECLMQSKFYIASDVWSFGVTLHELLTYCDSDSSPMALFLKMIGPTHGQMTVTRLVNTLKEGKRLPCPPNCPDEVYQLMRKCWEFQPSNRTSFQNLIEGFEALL

Assay [2] concerns the target JAK2 (recombinant purified GST-tagged catalytic domain) (Homo sapiens (Human), UniProt O60674). Kind of assay: Jak Biochemical HTRF Assay (JAK2). Particulars: [ATP] 8.5 μM.

pIC50: −log10 of the molar value. Where only a bound is given, the exact number is not on record here.

JAK2 (recombinant purified GST-tagged catalytic domain), sequence (O60674 849-1124): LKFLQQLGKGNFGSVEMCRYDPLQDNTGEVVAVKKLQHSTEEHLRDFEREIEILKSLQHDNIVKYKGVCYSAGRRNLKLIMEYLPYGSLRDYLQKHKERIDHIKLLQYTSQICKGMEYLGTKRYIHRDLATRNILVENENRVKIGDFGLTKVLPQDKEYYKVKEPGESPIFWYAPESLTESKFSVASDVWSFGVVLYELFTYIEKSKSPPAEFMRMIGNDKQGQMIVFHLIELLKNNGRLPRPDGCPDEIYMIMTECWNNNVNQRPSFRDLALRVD

Turning to `CC(C)(C)OC(=O)N1CCC(CC#N)(n2nc(Nc3ccc(C4(C(F)(F)F)CCNC4)cc3)c3c(=O)[nH]ccc32)CC1` (single isomer, unassigned) [Example 5-283, (S or R) tert-butyl 4-(cyanomethyl)-4-(4-oxo-3-((4-(3-(trifluoromethyl)pyrrolidin-3-yl)phenyl)amino)-4,5-dihydro-1H-pyrazolo[4,3-c]pyridin-1-yl)piperidine-1-carboxylate], the pIC50 was 9.48 in assay [1] and 9.37 in assay [2].

For the compound `CC(c1ccc(Nc2nn([C@]3(CC#N)CCCOC3)c3cc[nH]c(=O)c23)cc1)N1CCCC1` (single isomer, unassigned) [Example 5-200, {(3S)-3-[4-oxo-3-({4-[(1S or 1R)-1-pyrrolidin-1-ylethyl]phenyl}amino)-4,5-dihydro-1H-pyrazolo[4,3-c]pyridin-1-yl]tetrahydro-2H-pyran-3-yl}acetonitrile], the pIC50 in assay [1] was 8.94; in assay [2] it was 9.28.

With `CN(C)S(=O)(=O)c1ccc(Nc2nn(C3(CC#N)CCN(C(=O)CCC4CC4)CC3)c3cc[nH]c(=O)c23)cc1` [Example 9-11, 4-({1-[4-(cyanomethyl)-1-(3-cyclopropylpropanoyl)piperidin-4-yl]-4-oxo-4,5-dihydro-1H-pyrazolo[4,3-c]pyridin-3-yl}amino)-N,N-dimethylbenzenesulfonamide], the results for the pIC50 in assay [1] and in assay [2] were 9.85 and 8.94, respectively.

With `Cc1ccc2cc(Nc3nn([C@]4(CC#N)CC[C@@H](C(=O)OC(C)(C)C)OC4)c4cc[nH]c(=O)c34)ccc2n1` [Example 5-217, (2S,5S)-tert-butyl 5-(cyanomethyl)-5-(3-((2-methylquinolin-6-yl)amino)-4-oxo-4,5-dihydro-1H-pyrazolo[4,3-c]pyridin-1-yl)tetrahydro-2H-pyran-2-carboxylate], the figures for the pIC50 in assay [1] and in assay [2] were 10.15 and 9.11, respectively.

On to `CC(C)(C)OC(=O)N1CCC(CC#N)(n2nc(Nc3ccc(S(=O)(=O)C(F)(F)F)cc3)c3c(=O)[nH]ccc32)CC1` [Example 5-76, tert-butyl 4-(cyanomethyl)-4-[4-oxo-3-({4-[(trifluoromethyl)sulfonyl]phenyl}amino)-4,5-dihydro-1H-pyrazolo [4,3-c]pyridin-1-yl] piperidine-1-carboxylate], for which the pIC50 in assay [1] was 9.05; in assay [2] it was 8.10.

Turning to `CC(c1ccc(Nc2nn([C@]3(CC#N)CC[C@@H](C(=O)OC(C)(C)C)OC3)c3cc[nH]c(=O)c23)cc1)N1CCCC1` (single isomer, unassigned) [Example 5-211, (2S,5S)-tert-butyl 5-(cyanomethyl)-5-(4-oxo-3-((4-((S or R)-1-(pyrrolidin-1-yl)ethyl)phenyl)amino)-4,5-dihydro-1H-pyrazolo [4,3-c]pyridin-1-yl) tetrahydro-2H-pyran-2-carboxylate], the results for the pIC50 in assay [1] and in assay [2] were 9.72 and 9.92, respectively.

Consider `CC(C)(C)OC(=O)[C@@H]1CC[C@@](CC#N)(n2nc(Nc3ccc4c(c3)CN(CC(F)(F)F)C4=O)c3c(=O)[nH]ccc32)CO1` [Example 5-95, (2S,5S)-tert-butyl 5-(cyanomethyl)-5-(4-oxo-3-((1-oxo-2-(2,2,2-trifluoroethyl)isoindolin-5-yl)amino)-4,5-dihydro-1H-pyrazolo[4,3-c]pyridin-1-yl)tetrahydro-2H-pyran-2-carboxylate], for which the figures for the negative logarithm of the IC50 (pIC50) in assay [1] and in assay [2] were 10.15 and 9.70, respectively.

With `CC(C)(C)OC(=O)[C@@H]1CC[C@@](CC#N)(n2nc(Nc3ccc4c(c3)CN(CC(F)(F)F)S4(=O)=O)c3c(=O)[nH]ccc32)CO1` [Example 5-44, (2S,5S)-tert-butyl 5-(cyanomethyl)-5-(3-((1,1-dioxido-2-(2,2,2-trifluoroethyl)-2,3-dihydrobenzo[d]isothiazol-5-yl)amino)-4-oxo-4,5-dihydro-1H-pyrazolo[4,3-c]pyridin-1-yl)tetrahydro-2H-pyran-2-carboxylate], the negative logarithm of the IC50 (pIC50) in assay [1] was 9.85; in assay [2], 9.43.

For `CN(C)S(=O)(=O)c1cccc(Nc2nn(C3(CC#N)CCN(Cc4cccnc4)CC3)c3cc[nH]c(=O)c23)c1` [Example 8-19, 3-({1-[4-(cyanomethyl)-1-(pyridin-3-ylmethyl)piperidin-4-yl]-4-oxo-4,5-dihydro-1H-pyrazolo[4,3-c]pyridin-3-yl}amino)-N,N-dimethylbenzenesulfonamide], the pIC50 in assay [1] is 8.92; in assay [2], 8.70.

On to `CN(C)S(=O)(=O)c1ccc(Nc2nn(C3(CC#N)CCN(C(=O)C4Cc5ccccc5C4)CC3)c3cc[nH]c(=O)c23)cc1` [Example 9-18, 4-({1-[4-(cyanomethyl)-1-(2,3-dihydro-1H-inden-2-ylcarbonyl)piperidin-4-yl]-4-oxo-4,5-dihydro-1H-pyrazolo[4,3-c]pyridin-3-yl}amino)-N,N-dimethylbenzenesulfonamide], for which the figures for the pIC50 in assay [1] and in assay [2] were 9.85 and 9.41, respectively.

In the case of `CC(C)(C)OC(=O)[C@@H]1CC[C@@](CC#N)(n2nc(Nc3ccc(S(C)(=O)=O)cc3)c3c(=O)[nH]ccc32)CO1` (racemic) [Example 5-36, (2S,5S and 2R,5R)-tert-butyl 5-(cyanomethyl)-5-(3-((4-(methylsulfonyl)phenyl)amino)-4-oxo-4,5-dihydro-1H-pyrazolo[4,3-c]pyridin-1-yl)tetrahydro-2H-pyran-2-carboxylate], the results for the pIC50 in assay [1] and in assay [2] were 10.05 and 9.47, respectively.

Regarding `CN(C)S(=O)(=O)c1ccc(Nc2nn([C@@]3(CC#N)COCC[C@H]3F)c3cc[nH]c(=O)c23)cc1` (single isomer, unassigned) [Example 5-181, 4-({1-[(3S,4R or 3S,4R)-3-(cyanomethyl)-4-fluorotetrahydro-2H-pyran-3-yl]-4-oxo-4,5-dihydro-1H-pyrazolo[4,3-c]pyridin-3-yl}amino)-N,N-dimethylbenzene-sulfonamide], the pIC50 was 9.54 in assay [1] and 9.02 in assay [2].

Take `COC1CN([C@H]2CC[C@](CC#N)(n3nc(Nc4ccc(Cl)c(F)c4)c4c(=O)[nH]ccc43)CC2)C1` [Example 18-24, Trans 2-(1-(3-((4-chloro-3-fluorophenyl)amino)-4-oxo-4,5-dihydro-1H-pyrazolo[4,3-c]pyridin-1-yl)-4-(3-methoxyazetidin-1-yl)cyclohexyl)acetonitrile]: the negative-log IC50 (pIC50) in assay [1] is 10.05; in assay [2], 8.23.

On to `CC(C)(C)NC(c1ccc(Nc2nn([C@]3(CC#N)CC[C@@H](C(=O)OC(C)(C)C)OC3)c3cc[nH]c(=O)c23)cc1)C(F)(F)F` (single isomer, unassigned) [Example 5-195, (2S,5S)-tert-butyl 5-(3-((4-((R or S)-1-(tert-butylamino)-2,2,2-trifluoroethyl)phenyl)amino)-4-oxo-4,5-dihydro-1H-pyrazolo [4,3-c]pyridin-1-yl)-5-(cyanomethyl)tetrahydro-2H-pyran-2-carboxylate], for which the results for the pIC50 in assay [1] and in assay [2] were 9.25 and 9.17, respectively.

For the compound `CC(C)(C)N1Cc2cc(Nc3nn([C@]4(CC#N)CCOC[C@@H]4F)c4cc[nH]c(=O)c34)ccc2S1(=O)=O` (single isomer, unassigned) [Example 5-256, 2-((3R,4R or 3S,4S)-4-(3-((2-(tert-butyl)-1,1-dioxido-2,3-dihydrobenzo[d]isothiazol-5-yl)amino)-4-oxo-4,5-dihydro-1H-pyrazolo[4,3-c]pyridin-1-yl)-3-fluorotetrahydro-2H-pyran-4-yl)acetonitrile], the pIC50 in assay [1] was 10.40; in assay [2], 10.22.

For the compound `N#CCC1(n2nc(Nc3ccc(F)cc3)c3c(=O)[nH]ccc32)CCN(C(=O)C2CC2)CC1` [Example 7, [1-(cyclopropylcarbonyl)-4-{3-[(4-fluorophenyl)amino]-4-oxo-4,5-dihydro-1H-pyrazolo[4,3-c]pyridin-1-yl}piperidin-4-yl]acetonitrile], the negative logarithm of the IC50 (pIC50) in assay [1] was 10.05; in assay [2], 8.72.

For `Cc1cc(Nc2nn([C@]3(CC#N)CC[C@@H](C(=O)OC(C)(C)C)OC3)c3cc[nH]c(=O)c23)ccc1C(=O)N1CC(C)OC(C)C1` (single isomer, unassigned) [Example 20-12, (2S,5S)-tert-butyl 5-(cyanomethyl)-5-(3-((4-((2S,6S or 2R,6R)-2,6-dimethylmorpholine-4-carbonyl)-3-methylphenyl)amino)-4-oxo-4,5-dihydro-1H-pyrazolo[4,3-c]pyridin-1-yl)tetrahydro-2H-pyran-2-carboxylate], the negative logarithm of the IC50 (pIC50) in assay [1] was 9.60; in assay [2], 9.35.

Consider `CC(C)(C)OC(=O)[C@@H]1CC[C@@](CC#N)(n2nc(Nc3ccc(C(N)C(F)(F)F)cc3)c3c(=O)[nH]ccc32)CO1` (stereo partly drawn) [Example 5-104, (2S,5S)-tert-butyl 5-(3-((4-(1-amino-2,2,2-trifluoroethyl)phenyl)amino)-4-oxo-4,5-dihydro-1H-pyrazolo[4,3-c]pyridin-1-yl)-5-(cyanomethyl)tetrahydro-2H-pyran-2-carboxylate], for which the negative-log IC50 (pIC50) was 10.15 in assay [1] and 9.57 in assay [2].

As for `N#CC[C@]1(n2nc(Nc3ccc(Cl)cc3)c3c(=O)[nH]ccc32)CC[C@@H](Nc2ccccc2)CC1` [Example 18-13, Cis 2-(1-(3-((4-chlorophenyl)amino)-4-oxo-4,5-dihydro-1H-pyrazolo[4,3-c]pyridin-1-yl)-4-(phenylamino)cyclohexyl)acetonitrile], the pIC50 is 7.19 in assay [1] and under 5.83 in assay [2].

As for `CN(C)S(=O)(=O)c1ccc(Nc2nn(C3(CC#N)CCN(CCc4ccccc4)CC3)c3cc[nH]c(=O)c23)cc1` [Example 8-18, 4-((1-(4-(cyanomethyl)-1-phenethylpiperidin-4-yl)-4-oxo-4,5-dihydro-1H-pyrazolo[4,3-c]pyridin-3-yl)amino)-N,N-dimethylbenzenesulfonamide], the values for the negative-log IC50 (pIC50) in assay [1] and in assay [2] were 8.50 and 7.86, respectively.
